The values that follow are results of earlier work, collected in patent publication US20170014318A9, “Hair-growth-promoting solution containing chlorine dioxide, preparation methods and using methods thereof” (priority 2011, published 2017).

Bounds are passed on as bounds.

The test system of one series is skin and eye mucous. The settings on record: solution containing 9.7 to 11.4 mg/L of chlorine dioxide.
For series [1] the following is noted: 276.5 mg/L aqueous solution.
For series [2] the following is noted: 276.5 mg/L aqueous solution. The source holds these as a separate data set.

Take `[O][Cl+][O-]` [chlorine dioxide]: in the series with skin and eye mucous, the “48 hour skin and eye mucous irritating score” value was 0. Further, the “toxicity of aqueous solution” value in series [1] was “actually non-toxic”. Besides, the accumulated toxicity entry in series [2] is recorded as “no significant accumulated toxicity”.
Take stable chlorine dioxide: the “oral LD50” value with mice is reported as over 10000 mg/kg.
